Results reported in patent US9469878B2, “Methods of treating cancer comprising targeting NQO1” (The Board of Regents of the University of Texas System, priority 2010, dated 2016).

Legend:
PC-3 cells [1] = assay: Alkaline comet assay; type: cell-based, human; conditions: PC-3 cells after exposure to 4 μM β-lap
Method: DNA lesions, including total base damage, DSBs and SSBs, versus DSBs were assessed using single-cell gel electrophoretic comet assays under alkaline or neutral conditions, respectively (TREVIGEN, Gaithersburg, Md.). Slides were stained with SYBR Green and visualized using a Nikon Eclipse TE2000-E fluorescence microscope (Melville, N.Y.). Digital photomicrographs were taken and comet tail lengths quantified using NIH Image J software. Each datum point represents an average of 100 cells±SE, and data are representative of experiments performed in triplicate.

PC-3 cells [2] = assay: Apoptosis by TUNEL assay; type: cell-based, human; conditions: 2 μM β-lap alone, NQO1-expressing PC-3 cells
Method: Apoptosis was quantified using ApoDirect™ (TUNEL) assays from BD Pharmingen as described (Bey et al., 2007, Proc. Natl. Acad. Sci. USA, 104:11832-837). Samples were analyzed by using FC-500 flow cytometer (Beckman Coulter Electronics, Brea, Calif.) and Elite acquisition software. Data were expressed as means±SE from three independent experiments.

PC-3 cells [3] = assay: Relative DNA cell survival assay, β-lap with or without IR; type: cell-based, human; conditions: for Equivalent dose of IR / Equivalent dose of β-Lap: Machado's model
Method: Relative DNA cell survival assays were assessed after various treatments. Briefly, cells were seeded at 5×10^3 per well in 48-well plates and allowed to attach overnight. […] DNA content was then determined by Hoeschst 33258 dye staining and fluorescence detection using a plate reader (Perkin-Elmer, Boston, Mass.) as described. Relative survival assays after combined treatment were confirmed by colony-forming ability assays as described. Results were reported as means±SE from at least three independent experiments. For relative survival data, different combinations of IR+β-lap exposures were fit with simple multi-target models in SigmaPlot for Windows Version 11.0. For synergy, a statistical definition of synergy (48) was used and calculations were performed by fitting experimental data with the Machado and Robinson model using the R code (47). The equitoxic doses listed in Table 1 were calculated by the parameters of the model of Machado and Robinson obtained in fitting.

[4] = system: wild-type *1/*1 non-small cell lung cancer (NSCLC) cell lines; assay: LD50 responses of NSCLC cell lines treated with β-Lap; type: cell-based, human; conditions: all of the wild-type *1/*1 NSCLC cells, 2 h treatment, 7 days later
Method: FIG. 16 depicts NQO1 levels predict response to NQO1 bioactivatable therapies. In (a) LD50 responses of non-small cell lung cancer (NSCLC) cell lines treated with β-Lap for 2 h and harvester 7 days later. LD50 responses were plotted as a function of NQO1 enzymatic levels. The notations, *1/*1 and *2/*2 represent the NQO1 status of each cell line as homozygous wild type (*1/*1) or homozygous polymorphic (*2/*2) genotypes. Note that all heterozygote cells containing one wild-type allele (*1) are wild-type, phenotypically, for NQO1 expression, such that only homozygous *2/*2 or 3/3 are considered non-responsive to NQO1 bioactivatable drugs. Note the high resistance of H596 and H2862 cell lines to β-lapachone compared to all of the wild-type *1/*1 cells with LD50 values less than 5 μM. Note also that *3/*3 SNPs in NQO1 are far more rare than *2/*2 single point mutations in NQO1. In (b), Kaplan-Meier survival curve of mice bearing orthotopic lung tumors implanted with *1/*1 A549 cells. Mice were treated intravenously (5 doses every other day) with β-lap-HPβ-CD or vehicle alone (HPβ-CD). Similar studies with *2/*2 or *3/*3 tumors were performed and these tumors were non-responsive to β-lapachone or other NQO1 bioactivatable drug therapies.

[5] = β-Lap pharmacokinetic (PK) analyses; type: in vivo; conditions: athymic nude mice, plasma ng/mL, organs ng/g
Excerpt: FIG. 27 depicts correlative studies of NQO1 expression and β-lap, a bioactivatable drug. (a) NQO1 activity assay (reported as nMoles cyt-c/min/μg protein) in paired tumor (T) and associated normal tissue (N) from human NSCLC patient samples. NQO1 activity was not detectable in normal lung tissue. (b) β-Lap pharmacokinetic (PK) analyses in athymic nude mice. Black circles denote plasma concentrations (ng/mL); other colors denote various organ/tumor concentrations (ng/g). […] (c) NQO1 expression by immunohistochemistry (IHC). Arrowhead denotes NQO1+ prostate cancer cells. Arrow denotes normal prostate gland tissue that have low, or no, detectable NQO1 protein levels.

[6] = system: HMEC 1585 normal human mammary epithelial cells
Method: Cells were cultured and treated as described above. […] Experiments were repeated at least three times, and data expressed as relative survival (treated/control×100%) means±SEM. […] The multi-target model was used to describe the shape of relative survival curves. In this model, a final slope (D0) resulting from multiple-event killing and quasithreshold (Dq) doses were used to represent the size or width of the shoulder of the curve. The extrapolation number (n) is also a measure of the width of the shoulder. The three parameters, n, Do, and Dq were related by the expression: loge n=Dq/Do.
Cells were treated with β-lap with or without dicoumarol for 2 h. […] Data were expressed as relative survival (treated/control×100%). Experiments were repeated at least three times, and data expressed as relative survival means±SEM. […] Human mammary epithelial cells were plated in 48 well dishes in growth media containing a 50:50 mixture of MGEM/DME:F12 medium supplemented with insulin, human epidermal growth factor and hydrocortisone.

PC-3 cells [7] = assay: Intracellular NAD+ and ATP levels; type: cell-based, human; conditions: β-lap exposure
Method: ATP levels were analyzed from whole-cell extracts using CellTiter-Glo Luminescent Cell Viability Assays (Promega, Madison, Wis.) following the manufacture's instructions. Data were graphed as means±SE from at least three independent experiments in triplicates.

[8] = system: Human (shown) or mouse rbs; assay: Hemolysis of red blood cells; type: cell-based; conditions: rbs incubated with HPβCD alone, HPβCD-β-lap, or β-lap alone in DMSO
Method: Human (shown) or mouse rbs were incubated with HPβCD alone or HPβCD-β-lap, or β-lap alone in DMSO.

## CC1(C)CCC2=C(O1)c1ccccc1C(=O)C2=O [β-Lap, 3,4-dihydro-2,2-dimethyl-2H-naphtho[1,2-b]pyran-5,6-dione]
PC-3 cells [1]
  IR dose equivalent to DNA lesions by alkaline assays: 20 Gy
PC-3 cells [2]
  Apoptosis: 5±2%
PC-3 cells [3]; 4 μM β-lap
  Exposure time sufficient to achieve maximal cytotoxicity: ~120 min
PC-3 cells [3]; 1 Gy+1 μM β-lap
  β-lap dose with the same effect as the combination: 4 µM
PC-3 cells [3]; IR 0 Gy + β-Lap 1 μM
  Equivalent dose of IR: 0.6 Gy
  Equivalent dose of β-Lap: 1 µM
PC-3 cells [3]; IR 0 Gy + β-Lap 2 μM
  Equivalent dose of IR: 1.2 Gy
  Equivalent dose of β-Lap: 2 µM
PC-3 cells [3]; IR 0 Gy + β-Lap 3 μM
  Equivalent dose of IR: 1.7 Gy
  Equivalent dose of β-Lap: 3 µM
PC-3 cells [3]; IR 1 Gy + β-Lap 1 μM
  Equivalent dose of IR: 1.7 Gy
  Equivalent dose of β-Lap: 4.1 µM
PC-3 cells [3]; IR 1 Gy + β-Lap 2 μM
  Equivalent dose of IR: 2.1 Gy
  Equivalent dose of β-Lap: 5.6 µM
PC-3 cells [3]; IR 1 Gy + β-Lap 3 μM
  Equivalent dose of IR: 2.7 Gy
  Equivalent dose of β-Lap: 6.8 µM
PC-3 cells [3]; IR 2 Gy + β-Lap 1 μM
  Equivalent dose of IR: 2.6 Gy
  Equivalent dose of β-Lap: 7.9 µM
PC-3 cells [3]; IR 2 Gy + β-Lap 2 μM
  Equivalent dose of IR: 3.1 Gy
  Equivalent dose of β-Lap: 9.6 µM
PC-3 cells [3]; IR 2 Gy + β-Lap 3 μM
  Equivalent dose of IR: 3.6 Gy
  Equivalent dose of β-Lap: 11.5 µM
PC-3 cells [3]; IR 3 Gy + β-Lap 1 μM
  Equivalent dose of IR: 3.7 Gy
  Equivalent dose of β-Lap: 12.5 µM
PC-3 cells [3]; IR 3 Gy + β-Lap 2 μM
  Equivalent dose of IR: 4.1 Gy
  Equivalent dose of β-Lap: 14.5 µM
PC-3 cells [3]; IR 3 Gy + β-Lap 3 μM
  Equivalent dose of IR: 4.6 Gy
  Equivalent dose of β-Lap: 16 µM
[4]
  LD50: less than 5 μM
[5]
  Organ/tumor concentrations: elevated levels of the drug in lung
[6]
  LD50 β-Lap: >10
PC-3 cells [7]
  Time to exhaustion of NAD+ and ATP levels: ≤ 120 min
[8]
  Hemolysis: hemolysis by HPβCD and not β-lapachone
